Usually IC50 stands for the concentration at which inhibition is half-maximal.

Series [1] addresses β-N-acetylglucosaminidase (from human placenta). The series can be described thus: Inhibition assay against commercial β-N-acetylglucosaminidase (human placenta), p-nitrophenyl N-acetyl-β-D-glucosaminide substrate. The format is biochemical. Conditions: pH 5.5, 37° C.; average of three determinations ± s.e.m.; read-out: Human placenta Hex. The procedure: (§1) Inhibition Assays Against Commercial β-N-acetylglucosaminidases
(§2) Inhibition constant (Ki) values were determined by spectrophotometrically measuring the residual hydrolytic activities of the glycosidases against p-nitrophenyl N-acetyl-β-D-glucosaminide. […] Each assay was performed in phosphate-citrate buffer and the reactions were initiated by addition of the enzyme to a solution of the substrate in the absence or presence of various inhibitor concentrations. The mixture was incubated for 10-30 min at 37° C. and the reaction was quenched by addition of 1 M Na2CO3. Reaction times were appropriate to obtain 10-20% conversion of the substrate in order to achieve linear rates. The absorbance of the resulting mixture was determined at 405 nm. Approximate values of Ki were determined using a fixed concentration of substrate (around the Km value for the different glycosidases) and various inhibitor concentrations. Full Ki determinations and enzyme inhibition mode were determined from the slope of Lineweaver-Burk plots and double reciprocal analysis using a Microsoft Office Excel 2007 program.

For series [2], the target named is T1, Recombinant Human Hexosaminidase A (HexA) (Homo sapiens, UniProt P06865).
T1 construct: purchased R&D Systems 6237-GH-020
T1 sequence (P06865 89-529): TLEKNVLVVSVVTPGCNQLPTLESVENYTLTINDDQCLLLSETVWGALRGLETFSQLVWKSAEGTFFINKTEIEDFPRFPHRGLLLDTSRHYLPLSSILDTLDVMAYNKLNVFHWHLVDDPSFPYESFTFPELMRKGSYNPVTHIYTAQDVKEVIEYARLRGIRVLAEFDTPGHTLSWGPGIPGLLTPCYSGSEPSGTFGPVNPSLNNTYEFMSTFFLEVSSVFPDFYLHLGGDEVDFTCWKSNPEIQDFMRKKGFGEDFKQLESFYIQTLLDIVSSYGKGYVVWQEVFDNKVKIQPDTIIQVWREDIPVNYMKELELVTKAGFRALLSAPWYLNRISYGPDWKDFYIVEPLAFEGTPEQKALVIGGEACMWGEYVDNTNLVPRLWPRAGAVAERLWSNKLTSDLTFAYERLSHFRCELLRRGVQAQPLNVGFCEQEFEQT
As to the kind of experiment: Inhibition assay against rhHexA, 4-methylumbelliferone-N-acetyl-β-D-glucosaminide fluorescence. The format is biochemical. Conditions: IC50 for lysosomal hHexA; NI = no inhibition detected at 200 μM. The procedure:
Inhibition Assays Against rhHexA
Human Hexosaminidase A (HexA) enzyme, purchased from R&D Systems (cat# 6237-GH-020), were determined by measuring the fluorescent signal corresponding to the rate of hydrolytic activity against the commercially available artificial substrate, 4-Methylumbelliferone-N-acetyl-β-D-glucosaminide. HexA activity assays were performed in a buffer of 100 mM sodium citrate, 250 NaCl, pH 4.5 and 1.0 nM [HexA], then stopped after 20 minutes with a solution of 1.0 M Tris, pH 9.5 to enhance fluorescent signal. Preliminary experiments have shown that reaction rates are linear for 20 minutes after substrate addition, and that 1.0 M Tris at pH 9.5 is sufficient for stopping activity, as signal is stable after stopping. Inhibition assays were run in the presence or absence of various concentrations of inhibitors and at a fixed substrate concentration of 100 μM and 1% DMSO. First, inhibitor was serially diluted to the desired range of concentrations in 2% DMSO buffer. Next, 25 μL, of inhibitor solutions at various concentrations in 2% DMSO Buffer was added to 25 μL, of 4.0 nM enzyme and allowed to incubate at 25° C. for 5 minutes. 50 μL of 200 μM and 1% DMSO substrate was then added and allowed to react for 20 minutes. 100 μL of stop solution was added to reaction mixture, and immediately mixed and aliquoted in 45 μL triplicates to a CORNING 384 well black plate. Fluorescence signal was measured in a BioTek Neo 2 Plate reader set at excitation and emission wavelengths of 355 and 450 nm, respectively. % Activity was subsequently calculated for each inhibitor concentration against the fluorescence signal of uninhibited HexA. […]

Series [3] in a line: In vivo pharmacokinetics, plasma and brain concentrations. Further details: species or system C57BL/6 mice. As to conditions: 3 mg/kg single dose. The procedure: Mean plasma concentration (ng/mL) of compound 4 in C57BL/6 mice after 3 mg/kg i.v. administration.
Mean brain concentration (ng/mL) of 4 in C57BL/6 mice after 3 mg/kg i.v. administration
Assay for Determination of the in vivo Pharmacokinetics.
The pharmacokinetic profiles of the compounds to be tested were evaluated in vivo in C57BL/6 mice (n=14) following a 3 mg/kg […] dose.

Another series has as its target T2, hOGA (Homo sapiens, UniProt O60502).
T2 sequence (O60502 1-916): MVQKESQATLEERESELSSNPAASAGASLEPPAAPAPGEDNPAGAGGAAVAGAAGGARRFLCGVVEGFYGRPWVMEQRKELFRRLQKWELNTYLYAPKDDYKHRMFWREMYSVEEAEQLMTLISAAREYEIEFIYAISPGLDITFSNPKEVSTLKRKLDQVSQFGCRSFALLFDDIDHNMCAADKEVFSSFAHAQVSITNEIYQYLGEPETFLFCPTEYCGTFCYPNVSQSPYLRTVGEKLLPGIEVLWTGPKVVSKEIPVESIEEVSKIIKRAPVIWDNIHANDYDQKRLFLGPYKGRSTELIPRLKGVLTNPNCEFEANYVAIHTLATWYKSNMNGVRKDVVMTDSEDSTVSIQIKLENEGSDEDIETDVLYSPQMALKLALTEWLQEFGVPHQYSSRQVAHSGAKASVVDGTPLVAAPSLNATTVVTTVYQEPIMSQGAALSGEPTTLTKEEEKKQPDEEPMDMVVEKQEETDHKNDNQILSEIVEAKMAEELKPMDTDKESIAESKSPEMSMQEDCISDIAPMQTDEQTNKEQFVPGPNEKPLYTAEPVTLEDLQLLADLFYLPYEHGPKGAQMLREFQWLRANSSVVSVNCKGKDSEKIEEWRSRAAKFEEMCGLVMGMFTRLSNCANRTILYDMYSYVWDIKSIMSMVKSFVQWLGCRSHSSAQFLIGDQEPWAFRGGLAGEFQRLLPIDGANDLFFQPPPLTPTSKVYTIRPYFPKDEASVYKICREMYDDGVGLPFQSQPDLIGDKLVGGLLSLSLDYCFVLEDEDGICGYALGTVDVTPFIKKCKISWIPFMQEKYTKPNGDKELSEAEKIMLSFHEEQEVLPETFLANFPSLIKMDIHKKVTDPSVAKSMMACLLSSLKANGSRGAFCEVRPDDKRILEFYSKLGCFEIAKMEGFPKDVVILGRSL
As to the kind of experiment: Inhibition assay against hOGA, resorufin N-acetyl-β-D-glucosaminide fluorescence. The format is biochemical. Conditions: 0.2 nM hOGA, 25 μM substrate, pH 7.1; Morrison Ki. The procedure:
Inhibition Assays Against hOGA
Km=25 μM was measured with these conditions. Inhibition assays were run at 0.2 nM [hOGA] in the same buffer, in the presence or absence of various concentrations of inhibitors and at a fixed substrate concentration of 25 μM and 1% DMSO. First, inhibitor was serially diluted to the desired range of concentrations in 2% DMSO buffer. Next, 50 μL of inhibitor solutions at various concentrations in 2% DMSO Buffer was added to 50 μL of 0.8 nM enzyme and allowed to incubate at 25° C. for 5 minutes. 100 uL of 50 μM and 1% DMSO substrate was then added and reaction mixture was immediately mixed and aliquoted in 45 μL triplicates to a CORNING 384 well black plate. Fluorescence signal was measured continuously for 20 minutes at 37° C. in a BioTek Neo 2 Plate reader set at excitation and emission wavelengths of 572 and 610 nm, respectively. Max reaction rates for all inhibitor concentrations were calculated within Gen5 BioTek reader software. % Activity was subsequently calculated for each inhibitor concentration against the max reaction rate of uninhibited hOGA. GraphPad Prism 2016 was used to approximate the Morrison Ki values for each inhibitor.

Series [4] deals with β-N-acetylglucosaminidase (from jack bean). The series can be described thus: Inhibition assay against commercial β-N-acetylglucosaminidase (jack bean), p-nitrophenyl N-acetyl-β-D-glucosaminide substrate. The series is classed as biochemical. As to conditions: pH 5.5, 37° C.; average of three determinations ± s.e.m.; NI = no inhibition detected at 200 μM; read-out: Jack beans Hex. The procedure:
as §1, §2

For series [5], the target named is β-N-acetylglucosaminidase (from bovine kidney). As to the kind of experiment: Inhibition assay against commercial β-N-acetylglucosaminidase (bovine kidney), p-nitrophenyl N-acetyl-β-D-glucosaminide substrate. The series is classed as biochemical. Conditions: pH 5.5, 37° C.; average of three determinations ± s.e.m.; NI = no inhibition detected at 200 μM; read-out: Bovine kidney Hex. The procedure:
as §1, §2

Counter-ions that a name gives are not always drawn.

As to `CC(=O)N[C@H]1CN2/C(=N/Cc3ccccc3)SC[C@@H]2[C@@H](O)[C@@H]1O` [Compound 4, 2-Acetamido-5-N,6-S-(N′-benzyliminomethylidene)-1,2-dideoxy-6-thionojirimycin Hydrochloride], the Ki in series [1] was determined as 420 ± 30 nM; on hOGA, 2.99 nM; in series [4], 750 ± 40 nM; in series [5], 460 ± 30 nM. In addition, the concentration for half-maximal inhibition (IC50) in series [2] is 560 nM. In series [3] (homogenized brain, initial value), the “brain concentration, start of the decrease (FIG. 2)” value is listed as 26 ng/g. Moreover, the “plasma concentration, start of the decrease (FIG. 1)” value in series [3] (plasma, initial value) is given as 1100 ng/mL. Also, the concentration at 24 h in series [3] (C57BL/6, mouse, intravenous, homogenized brain, 24 h, read-out: brain concentration after 24 h (FIG. 2)) stood at 7.5 ng/g. Further, the concentration at 12 h in series [3] (C57BL/6, mouse, intravenous, plasma, 12 h, read-out: plasma concentration after 12 h (FIG. 1)) was 0.78 ng/mL.
